Where two headings read alike, the source gives them in different places.
Key:
[1] = system: Key Grass and Sedge Weeds as well as Grass Crops; experiment: Post-emergent Test II herbicidal activity (Table 16); format: in vivo; conditions: post-emergence, 336 h, 14 d; for pest or weed control at 35 g/ha: 35 g ai/ha; for pest or weed control at 70 g/ha: 70 g ai/ha; for pest or weed control at 140 g/ha: 140 g ai/ha
Summary of the method: (§1)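 Plants grown in greenhouse (~15 h photoperiod, 23-29 °C day, 22-28 °C night) to first or second true leaf stage, then sprayed post-emergence at 187 L/ha with a high rate and 1/2×, 1/4×, 1/8× and 1/16× dilutions. Injury scored visually after 14 d, 0-100% versus untreated plants.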

[2] = system: Key Broadleaf Weed and Crop Species; experiment: Post-emergent Test II herbicidal activity (Table 15); format: in vivo; conditions: post-emergence, 336 h, 14 d; for pest or weed control at 35 g/ha: 35 g ai/ha; for pest or weed control at 70 g/ha: 70 g ai/ha; for pest or weed control at 140 g/ha: 140 g ai/ha
Summary of the method: as §1

[3] = Cyperus esculentus, yellow nutsedge (Cyperus esculentus), read-out: Visual Growth Reduction (%) 14 Days After Application, CYPES
[4] = Echinochloa crus-galli, barnyardgrass (Echinochloa crus-galli), read-out: Visual Growth Reduction (%) 14 Days After Application, ECHCG
[5] = Oryza sativa, rice (Oryza sativa), read-out: Visual Growth Reduction (%) 14 Days After Application, ORYSA
[6] = Setaria faberi, giant foxtail (Setaria faberi), read-out: Visual Growth Reduction (%) 14 Days After Application, SETFA
[7] = Triticum aestivum, wheat, spring (Triticum aestivum), read-out: Visual Growth Reduction (%) 14 Days After Application, TRZAS
[8] = Zea mays, maize, corn (Zea mays), read-out: Visual Growth Reduction (%) 14 Days After Application, ZEAMX
[9] = Abutilon theophrasti, velvetleaf (Abutilon theophrasti), read-out: Visual Growth Reduction (%) 14 Days After Application, ABUTH
[10] = Amaranthus retroflexus, redroot pigweed (Amaranthus retroflexus), read-out: Visual Growth Reduction (%) 14 Days After Application, AMARE
[11] = Brassica napus, oilseed rape, canola (Brassica napus), read-out: Visual Growth Reduction (%) 14 Days After Application, BRSNN
[12] = Chenopodium album, lambsquarters (Chenopodium album), read-out: Visual Growth Reduction (%) 14 Days After Application, CHEAL
[13] = Euphorbia heterophylla, wild poinsettia (Euphorbia heterophylla), read-out: Visual Growth Reduction (%) 14 Days After Application, EPHHL
[14] = Helianthus annuus, sunflower (Helianthus annuus), read-out: Visual Growth Reduction (%) 14 Days After Application, HELAN

COC(=O)c1nc(-c2cc3occc3cc2F)nc(N)c1OC [Compound 2.14]
melting point: 153 °C
pest or weed control at 35 g/ha [1, 3]: 0 to 29%
pest or weed control at 70 g/ha [1, 3]: 0 to 29%
pest or weed control at 140 g/ha [1, 3]: 0 to 29%
pest or weed control at 35 g/ha [1, 4]: 0 to 29%
pest or weed control at 70 g/ha [1, 4]: 0 to 29%
pest or weed control at 140 g/ha [1, 4]: 75 to 84%
pest or weed control at 35 g/ha [1, 5]: 0 to 29%
pest or weed control at 70 g/ha [1, 5]: 0 to 29%
pest or weed control at 140 g/ha [1, 5]: 0 to 29%
pest or weed control at 35 g/ha [1, 6]: 0 to 29%
pest or weed control at 70 g/ha [1, 6]: 0 to 29%
pest or weed control at 140 g/ha [1, 6]: 0 to 29%
pest or weed control at 35 g/ha [1, 7]: 0 to 29%
pest or weed control at 70 g/ha [1, 7]: 0 to 29%
pest or weed control at 140 g/ha [1, 7]: 0 to 29%
pest or weed control at 35 g/ha [1, 8]: 0 to 29%
pest or weed control at 70 g/ha [1, 8]: 0 to 29%
pest or weed control at 140 g/ha [1, 8]: 0 to 29%
pest or weed control at 35 g/ha [2, 9]: 0 to 29%
pest or weed control at 70 g/ha [2, 9]: 0 to 29%
pest or weed control at 140 g/ha [2, 9]: 0 to 29%
pest or weed control at 35 g/ha [2, 10]: 95 to 100%
pest or weed control at 70 g/ha [2, 10]: 95 to 100%
pest or weed control at 140 g/ha [2, 10]: 95 to 100%
pest or weed control at 35 g/ha [2, 11]: 95 to 100%
pest or weed control at 70 g/ha [2, 11]: 95 to 100%
pest or weed control at 140 g/ha [2, 11]: 95 to 100%
pest or weed control at 35 g/ha [2, 12]: 85 to 94%
pest or weed control at 70 g/ha [2, 12]: 95 to 100%
pest or weed control at 140 g/ha [2, 12]: 95 to 100%
pest or weed control at 35 g/ha [2, 13]: 85 to 94%
pest or weed control at 70 g/ha [2, 13]: 95 to 100%
pest or weed control at 140 g/ha [2, 13]: 95 to 100%
pest or weed control at 35 g/ha [2, 14]: 60 to 74%
pest or weed control at 70 g/ha [2, 14]: 85 to 94%
pest or weed control at 140 g/ha [2, 14]: 95 to 100%

COC(=O)c1nc(-c2cccc3occc23)c(F)c(N)c1Cl [Compound 2.15]
melting point: 100 to 103 °C
pest or weed control at 35 g/ha [1, 3]: 0 to 29%
pest or weed control at 70 g/ha [1, 3]: 0 to 29%
pest or weed control at 140 g/ha [1, 3]: 0 to 29%
pest or weed control at 35 g/ha [1, 4]: 0 to 29%
pest or weed control at 70 g/ha [1, 4]: 45 to 59%
pest or weed control at 140 g/ha [1, 4]: 75 to 84%
pest or weed control at 35 g/ha [1, 5]: 0 to 29%
pest or weed control at 70 g/ha [1, 5]: 0 to 29%
pest or weed control at 140 g/ha [1, 5]: 0 to 29%
pest or weed control at 35 g/ha [1, 6]: 0 to 29%
pest or weed control at 70 g/ha [1, 6]: 0 to 29%
pest or weed control at 140 g/ha [1, 6]: 0 to 29%
pest or weed control at 35 g/ha [1, 7]: 0 to 29%
pest or weed control at 70 g/ha [1, 7]: 0 to 29%
pest or weed control at 140 g/ha [1, 7]: 0 to 29%
pest or weed control at 35 g/ha [1, 8]: 95 to 100%
pest or weed control at 70 g/ha [1, 8]: 95 to 100%
pest or weed control at 140 g/ha [1, 8]: 95 to 100%
pest or weed control at 35 g/ha [2, 9]: 45 to 59%
pest or weed control at 70 g/ha [2, 9]: 75 to 84%
pest or weed control at 140 g/ha [2, 9]: 95 to 100%
pest or weed control at 35 g/ha [2, 10]: 95 to 100%
pest or weed control at 70 g/ha [2, 10]: 95 to 100%
pest or weed control at 140 g/ha [2, 10]: 95 to 100%
pest or weed control at 35 g/ha [2, 11]: 45 to 59%
pest or weed control at 70 g/ha [2, 11]: 75 to 84%
pest or weed control at 140 g/ha [2, 11]: 85 to 94%
pest or weed control at 35 g/ha [2, 12]: 95 to 100%
pest or weed control at 70 g/ha [2, 12]: 95 to 100%
pest or weed control at 140 g/ha [2, 12]: 95 to 100%
pest or weed control at 35 g/ha [2, 13]: 0 to 29%
pest or weed control at 70 g/ha [2, 13]: 0 to 29%
pest or weed control at 140 g/ha [2, 13]: 0 to 29%
pest or weed control at 35 g/ha [2, 14]: 45 to 59%
pest or weed control at 70 g/ha [2, 14]: 75 to 84%
pest or weed control at 140 g/ha [2, 14]: 75 to 84%

COC(=O)c1nc(-c2ccc(Cl)c3occc23)c(F)c(N)c1Cl [Compound 2.16, Methyl 4-amino-3-chloro-6-(7-chlorobenzofuran-4-yl)-5-fluoropicolinate]
melting point: 184 to 186 °C
pest or weed control at 35 g/ha [1, 3]: 0 to 29%
pest or weed control at 70 g/ha [1, 3]: 0 to 29%
pest or weed control at 140 g/ha [1, 3]: 0 to 29%
pest or weed control at 35 g/ha [1, 4]: 0 to 29%
pest or weed control at 70 g/ha [1, 4]: 0 to 29%
pest or weed control at 140 g/ha [1, 4]: 0 to 29%
pest or weed control at 35 g/ha [1, 5]: 0 to 29%
pest or weed control at 70 g/ha [1, 5]: 0 to 29%
pest or weed control at 140 g/ha [1, 5]: 0 to 29%
pest or weed control at 35 g/ha [1, 6]: 0 to 29%
pest or weed control at 70 g/ha [1, 6]: 0 to 29%
pest or weed control at 140 g/ha [1, 6]: 0 to 29%
pest or weed control at 35 g/ha [1, 7]: 0 to 29%
pest or weed control at 70 g/ha [1, 7]: 0 to 29%
pest or weed control at 140 g/ha [1, 7]: 0 to 29%
pest or weed control at 35 g/ha [1, 8]: 45 to 59%
pest or weed control at 70 g/ha [1, 8]: 95 to 100%
pest or weed control at 140 g/ha [1, 8]: 95 to 100%
pest or weed control at 35 g/ha [2, 9]: 85 to 94%
pest or weed control at 70 g/ha [2, 9]: 95 to 100%
pest or weed control at 140 g/ha [2, 9]: 95 to 100%
pest or weed control at 35 g/ha [2, 10]: 95 to 100%
pest or weed control at 70 g/ha [2, 10]: 95 to 100%
pest or weed control at 140 g/ha [2, 10]: 95 to 100%
pest or weed control at 35 g/ha [2, 11]: 45 to 59%
pest or weed control at 70 g/ha [2, 11]: 60 to 74%
pest or weed control at 140 g/ha [2, 11]: 60 to 74%
pest or weed control at 35 g/ha [2, 12]: 95 to 100%
pest or weed control at 70 g/ha [2, 12]: 95 to 100%
pest or weed control at 140 g/ha [2, 12]: 95 to 100%
pest or weed control at 35 g/ha [2, 13]: 0 to 29%
pest or weed control at 70 g/ha [2, 13]: 0 to 29%
pest or weed control at 140 g/ha [2, 13]: 0 to 29%
pest or weed control at 35 g/ha [2, 14]: 95 to 100%
pest or weed control at 70 g/ha [2, 14]: 95 to 100%
pest or weed control at 140 g/ha [2, 14]: 95 to 100%

Source: patent US20170050957A1, “4-AMINO-6-(HETEROCYCLIC)PICOLINATES AND 6-AMINO-2-(HETEROCYCLIC)PYRIMIDINE-4-CARBOXYLATES AND THEIR USE AS HERBICIDES” (Dow AgroSciences LLC, priority 2013, published 2017)
